Test results as given in patent US20180296456A1, “Decapeptide-12 Modulation of Sirtuin Gene Expression in Epidermal Keratinocyte Progenitors” (Escape Therapeutics, Inc., priority 2017, published 2018).

Key:
Type in all cases: cell-based
SIRT2 = SIRT2 transcription, semi-quantitative RT-PCR in human epidermal progenitors; conditions: 72 h
Description: (§1) Human neonatal epidermal progenitors (Thermo Fisher Scientific, NY) were seeded in 6-well plates at a density of 2×10^5 cells/well. Each well received 2 ml of Epilife media containing 60 μM calcium chloride (Thermo Fisher Scientific, NY). Plates were incubated in a humidified chamber at 37 degrees Celsius and 5 percent CO2. Twenty-four hours later, cells were treated with various concentrations of oxyresveratrol or decapeptide-12 dissolved in PBS containing 5 percent DMSO. Control wells received vehicle only (5 percent DMSO and PBS). Final concentration of DMSO in each well was 0.05 percent.
(§2) After a 72 hour incubation period, cells were trypsinized and total RNA extracted, using RNeasy kit (Qiagen, Valencia, Calif.) according to the manufacturer's protocol.
(§3) RNA concentration was determined using nanodrop (Thermo fisher scientific, NY). Two μg of total RNA were used to synthesize cDNA using oligo dT primers and TaqMan reverse transcription reagents (Thermo fisher scientific, NY). The reaction was carried out in DNA Engine Peltier Thermal Cycler (Bio-Rad, Hercules, Calif.). The annealing temperature was 25 degrees Celsius for 10 minutes, followed by first strand synthesis at 48 degrees Celsius for 1 hour, and heat inactivation at 95 degrees Celsius for 5 minutes.
(§4) The SIRT1-7 primers (table 1) were designed using Primer3. The semi-quantitative PCR reactions were performed on a DNA Engine Peltier Thermo Cycler (Bio-Rad, Hercules, Calif.). PCR was carried under the following conditions: denaturation at 94 degrees Celsius for 2 minutes and primer extension at 54 degrees Celsius for 30 seconds in 34 cycles for SIRT 1-7 and the housekeeping gene 18S.
(§5) Samples were run and resolved on a 1.5 percent agarose gel containing 0.5 μg/ml of ethidium bromide and imaged using the FluorChem HD2 Imaging System (Protein simple, San Jose, Calif.). Densitometry analysis was carried out using the AlphaEase FC software (Protein simple, San Jose, Calif.). Intensity ratios were calculated as the intensity value for each gene divided by the intensity value of the internal control gene 18S.
(§6) The effect of the decapeptides P4, P4A, P4B, and P4C upon the transcription levels of sirtuins 1-7 was evaluated. Table 4 summarizes transcription levels for all four decapeptides with the corresponding genes, at tested concentrations of: 10, 30, 50, 100, and 300 (all in μM).

SIRT6 = SIRT6 transcription, semi-quantitative RT-PCR in human epidermal progenitors; conditions: 72 h
Description: as §1, §2, §3, §4, §5, §6

SIRT5 = SIRT5 transcription, semi-quantitative RT-PCR in human epidermal progenitors; conditions: 72 h
Description: as §1, §2, §3, §4, §5, §6

SIRT4 = SIRT4 transcription, semi-quantitative RT-PCR in human epidermal progenitors; conditions: 72 h
Description: as §1, §2, §3, §4, §5, §6

[1] = system: human epidermal progenitors; assay: in vitro; conditions: 72 h
Description: Proliferation rates were determined using a TACS® MTT Cell Proliferation Kit (R&D systems, Minneapolis, Minn.). Cells were seeded at 2.5×10^4/well in 96-well plates in a humidified atmosphere with 5 percent CO2 at 37 degrees Celsius. Twenty-four hours later, decapeptide-12 or oxyresveratrol were added to the corresponding wells at varying concentrations (0, 3, 10, 30, 100, 300, and 1000 μM), and cultures were then incubated for 72 hours. The remainder of the procedure was performed following the manufacturer's protocol.
Proliferation rates for three human cell lines (epidermal progenitors, melanoblasts, and fibroblasts) were determined using a TACS® MTT Cell Proliferation Kit. Cells were seeded at 2.5×10^4/well in 96-well plates in a humidified atmosphere with 5 percent CO2 at 37 degrees Celsius. Twenty-four hours later, the decapeptides were added to the corresponding wells at varying concentrations and incubated for 72 hours. The remainder of the procedure was performed following the manufacturer's protocol.

SIRT7 = SIRT7 transcription, semi-quantitative RT-PCR in human epidermal progenitors; conditions: 72 h
Description: as §1, §2, §3, §4, §5, §6

[2] = system: human epidermal progenitors; assay: Trypan blue dye exclusion cytotoxicity assay, 72 h, epidermal progenitors; conditions: human, 72 h
Description: Cellular toxicity was measured using a trypan blue dye exclusion assay. Cells were cultured in 6-well plates at a density of 4×10^5 cells/well. Each well received a different concentration of decapeptide-12 or oxyresveratrol (0, 3, 10, 30, 100, 300, and 1000 μM). Plates were incubated at 37 degrees Celsius in a humidified 5 percent CO2 chamber. After 72 h, an aliquot was taken and cells counted using a hemacytometer. Cytotoxicity was measured according to the following formula: [1−(# of cells in control−# of live cells in test sample)/# of cells in control]×100 percent.

SIRT1 = SIRT1 transcription, semi-quantitative RT-PCR in human epidermal progenitors; conditions: 72 h
Description: as §1, §2, §3, §4, §5, §6

SIRT3 = SIRT3 transcription, semi-quantitative RT-PCR in human epidermal progenitors; conditions: 72 h
Description: as §1, §2, §3, §4, §5, §6

Oc1cc(O)cc(/C=C/c2ccc(O)cc2O)c1 [oxyresveratrol, Oxyresveratrol, reference compound]
SIRT2 transcription increase relative to control (SIRT2; 3 μM): 7.9 ± 2%
SIRT2 transcription increase relative to control (SIRT2; 10 μM): 14.9 ± 1.9%
SIRT2 transcription increase relative to control (SIRT2; 30 μM): 43.1 ± 2.4%
SIRT2 transcription increase relative to control (SIRT2; 50 μM): 56.3 ± 7.7%
SIRT2 transcription increase relative to control (SIRT2; 100 μM): 41.2 ± 8.1%
SIRT2 transcription increase relative to control (SIRT2; 300 μM): 39 ± 9.3%
SIRT2 transcription increase relative to control (SIRT2; 500 μM): 33.1 ± 12.4%
SIRT2 transcription increase relative to control (SIRT2; 1000 μM): 31.2 ± 12.3%
SIRT6 transcription increase relative to control (SIRT6; 3 μM): 6.1 ± 1%
SIRT6 transcription increase relative to control (SIRT6; 10 μM): 34 ± 5.5%
SIRT6 transcription increase relative to control (SIRT6; 30 μM): 73±8%
SIRT6 transcription increase relative to control (SIRT6; 30 μM, listed as Oxy): 73 ± 8.1%
SIRT6 transcription increase relative to control (SIRT6; 50 μM): 81.3 ± 8.1%
SIRT6 transcription increase relative to control (SIRT6; 100 μM): 82.4 ± 8.4%
SIRT6 transcription increase relative to control (SIRT6; 300 μM): 87.4 ± 9.3%
SIRT6 transcription increase relative to control (SIRT6; 500 μM): 81.2 ± 12.4%
SIRT6 transcription increase relative to control (SIRT6; 1000 μM): 75 ± 15.1%
SIRT5 transcription increase relative to control (SIRT5; 3 μM): 7.1 ± 1%
SIRT5 transcription increase relative to control (SIRT5; 10 μM): 12.3 ± 3%^
SIRT5 transcription increase relative to control (SIRT5; 30 μM): 45.1 ± 4.3%
SIRT5 transcription increase relative to control (SIRT5; 50 μM): 46 ± 4%
SIRT5 transcription increase relative to control (SIRT5; 100 μM): 36.1 ± 6.7%
SIRT5 transcription increase relative to control (SIRT5; 300 μM): 33.4 ± 7.1%
SIRT5 transcription increase relative to control (SIRT5; 500 μM): 35.1 ± 8.1%
SIRT5 transcription increase relative to control (SIRT5; 1000 μM): 37 ± 6.8%
SIRT4 transcription increase relative to control (SIRT4; 3 μM): 8.1 ± 1%
SIRT4 transcription increase relative to control (SIRT4; 10 μM): 12.4 ± 2.1%
SIRT4 transcription increase relative to control (SIRT4; 30 μM): 49 ± 6.7%
SIRT4 transcription increase relative to control (SIRT4; 50 μM): 52.1 ± 6.6%
SIRT4 transcription increase relative to control (SIRT4; 100 μM): 64.1 ± 7.4%
SIRT4 transcription increase relative to control (SIRT4; 300 μM): 67 ± 8.7%
SIRT4 transcription increase relative to control (SIRT4; 500 μM): 61.2 ± 8.8%
SIRT4 transcription increase relative to control (SIRT4; 1000 μM): 71.3 ± 9.2%
reduced cell proliferation ([1]; 300 μM): 5±1%
reduced cell proliferation ([1]; 1 mM): 12±2%
SIRT7 transcription increase relative to control (SIRT7; 3 μM): 6.3 ± 1%
SIRT7 transcription increase relative to control (SIRT7; 10 μM): 65 ± 2.9%
SIRT7 transcription increase relative to control (SIRT7; 30 μM): 95±7%
SIRT7 transcription increase relative to control (SIRT7; 30 μM, listed as Oxy): 95 ± 6.7%
SIRT7 transcription increase relative to control (SIRT7; 50 μM): 114 ± 8.1%
SIRT7 transcription increase relative to control (SIRT7; 100 μM): 132 ± 7.6%
SIRT7 transcription increase relative to control (SIRT7; 300 μM): 168 ± 4.8%
SIRT7 transcription increase relative to control (SIRT7; 500 μM): 177 ± 6.6%
SIRT7 transcription increase relative to control (SIRT7; 1000 μM): 165 ± 5.1%
cell death ([2]; 100 μM): 6±1%
cell death ([2]; 1 mM): 16±2%
SIRT1 transcription increase relative to control (SIRT1; 3 μM): 8.7 ± 1%
SIRT1 transcription increase relative to control (SIRT1; 10 μM): 45 ± 7.7%
SIRT1 transcription increase relative to control (SIRT1; 30 μM): 125±9%
SIRT1 transcription increase relative to control (SIRT1; 30 μM, listed as Oxy): 124.5 ± 8.6%
SIRT1 transcription increase relative to control (SIRT1; 50 μM): 166 ± 14.5%
SIRT1 transcription increase relative to control (SIRT1; 100 μM): 187 ± 16.6%
SIRT1 transcription increase relative to control (SIRT1; 300 μM): 187 ± 15.4%
SIRT1 transcription increase relative to control (SIRT1; 500 μM): 176 ± 10%^
SIRT1 transcription increase relative to control (SIRT1; 1000 μM): 175 ± 9%
SIRT3 transcription increase relative to control (SIRT3; 3 μM): 10 ± 3%
SIRT3 transcription increase relative to control (SIRT3; 10 μM): 52.7 ± 5.1%
SIRT3 transcription increase relative to control (SIRT3; 30 μM): 133±5%
SIRT3 transcription increase relative to control (SIRT3; 30 μM, listed as Oxy): 133 ± 4.8%
SIRT3 transcription increase relative to control (SIRT3; 50 μM): 156 ± 9.2%
SIRT3 transcription increase relative to control (SIRT3; 100 μM): 148 ± 7.3%
SIRT3 transcription increase relative to control (SIRT3; 300 μM): 152.2 ± 9%
SIRT3 transcription increase relative to control (SIRT3; 500 μM): 151 ± 8.1%
SIRT3 transcription increase relative to control (SIRT3; 1000 μM): 151 ± 7.4%
